Literature values, collected in patent US7593820B2, “Crystal structure of human Janus Kinase 2 (JAK2) and uses thereof” (Cytopia Research Pty Ltd, priority 2005, dated 2009).

Test system: other PTKs that possess either a Thr or Val
Conditions: Thr or Val at gatekeeper position

For `CC(C)(C)c1nc2c3cc[nH]c(=O)c3c3cc(F)ccc3c2[nH]1` [Compound 6, 2-tert-Butyl-9-fluoro-3,6-dihydro-7H-benz[h]imidazo[4,5-f]isoquinolin-7-one], the “IC50 for other PTKs that possess either a Thr or Val” value is given as “uM range”.
